Patent US8981106B2, “Pyrimidinecarboxamides as CXCR2 modulators” (Syntrix Biosystems, Inc., priority 2009, dated 2015)
“Also recorded” adds a separate entry of the source.

Assays:
CXCR2 [1] = target: T1, CXCR2 (Homo sapiens (Human), UniProt P25025); assay: β-arrestin recruitment, β-galactosidase fragment complementation (DiscoveRx)
Target sequence in this assay (P25025 whole entry, species assumed, the tested form may be a part): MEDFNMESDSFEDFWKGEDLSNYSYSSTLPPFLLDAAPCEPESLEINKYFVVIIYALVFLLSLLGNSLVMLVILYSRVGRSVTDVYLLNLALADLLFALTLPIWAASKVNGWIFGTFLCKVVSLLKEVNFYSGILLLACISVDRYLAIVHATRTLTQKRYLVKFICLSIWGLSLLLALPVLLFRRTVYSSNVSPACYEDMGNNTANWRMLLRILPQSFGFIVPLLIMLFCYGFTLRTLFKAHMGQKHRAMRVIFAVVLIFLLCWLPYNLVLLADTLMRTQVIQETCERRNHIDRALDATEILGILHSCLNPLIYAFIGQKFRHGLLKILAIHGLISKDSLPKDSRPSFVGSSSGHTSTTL

CXCR2 [2] = target: T1, CXCR2; assay: Agonist activity: intracellular calcium release in human neutrophils in the absence of GROα; assay type: cell-based; conditions: relative to the response to 25 nM GROα
Experimental: In Tables 1-5, the IC50 or EC50 values were determined using the following assay. This assay measures intracellular calcium release via fluorescence as an indication of CXCR2 receptor activation by the physiologic agonist GROα. The assay is a Ca^2+ mobilization assay that measures changes in intracellular Ca^2+ with a FlexStation II scanning fluorometer using a FLIPR-3 Calcium Assay Kit (Molecular Devices, Sunnyvale, Calif.). The procedure is as follows:
9. The maximum change in fluorescence, expressed in arbitrary units over baseline (Max-Min) was used to determine the GROα response. […] Therapeutic Activity
The maximum change in fluorescence, expressed in arbitrary units over baseline (Max-Min), was used to determine the GROα response.
Intracellular calcium release is a hallmark of CXCR2 activation by endogenous agonists, such as GROα and IL-8.
Target sequence in this assay (P25025 whole entry, the tested form may be a part): as the sequence (P25025 whole entry, species assumed, the tested form may be a part) above

pulmonary inflammation = assay: Ozone rat model of pulmonary inflammation; assay type: in vivo, Sprague-Dawley rats; conditions: 1 mg/kg i.v., 1 ppm ozone, BALF at 24 hours
Experimental: Activity in this model of pulmonary inflammation would provide direct relevance towards the treatment of a number of pulmonary inflammatory diseases, including chronic obstructive pulmonary disease (COPD) and bronchopulmonary dysplasia (BPD). In this experiment, Sprague-Dawley rats (n=4 per cohort) were dosed intravenously at t=0 with either vehicle (negative and positive groups, dimethylformamide/PEG400/saline, 40:40:20) or SX-576 (1 mg/kg). The rats were then placed in air (negative group) or 1 ppm ozone (positive and SX-576 groups) for 4 hours. The rats were dosed again at t=5 and 9 hours. The rats were then sacrificed at t=24 hours, and the bronchoalveolar lavage fluid (BALF) was collected. The cells were spun down, stained with Wright-Giemsa and counted. In the negative groups, no neutrophils were observed when stained. As a measure of lung leakage/damage, protein levels were quantified in BALF by Bradford protein assay analysis.

[3] = Crossover pharmacokinetic experiment in Beagle dogs; assay type: in vivo
Experimental: In this study, male Beagle dogs (n=5) were dosed intravenously on study day 1 with SX-576 in dimethylformamide/PEG400/saline (40:40:20) at a dose level of 5 mg/kg and a dose volume of 0.5 mL/kg. Blood samples were taken predose, and at time points 30, 60, 90, 120, 180, 360, 540 and 720 minutes. The blood was collected in tubes containing K2EDTA as an anticoagulant, and the tubes were centrifuged and the plasma fractions collected and frozen. After a one-week washout period, the same Beagle dogs were dosed orally with SX-576 in lipid based excipient Gelucire® 44/14 (Gattefosse) at a dose level of 5 mg/kg. Blood samples were then taken and plasma fractions collected as previously described. Prior to analysis, the plasma samples were thawed and diluted 1:3 into acetonitrile containing 1 μM of compound 153 as an internal standard. The resulting samples were centrifuged and the supernatant analyzed by LC-MS monitoring in multiple reaction monitoring mode. The samples were run concomitantly with a calibration curve of SX-576 in the same internal standard solution.
The lipid based excipient Gelucire® 44/14 is a self-emulsifying drug delivery system (SEDDS) that is able to solubilize both SX-517 and SX-576 into aqueous solutions via micellular formation. […] Therefore, lipid-based emulsifiers are important excipients for the oral delivery of SX-576.

neutrophil influx [4] = assay: Murine air pouch model of neutrophil chemotaxis (i.v.); assay type: in vivo, male CD-1 mice; conditions: i.v., 0.02, 0.05, 0.2 and 1.0 mg/kg
Experimental: (§1) The procedure was performed by forming an air pouch on the backs of male CD-1 mice via the subcutaneous injection of air (2 mL). The next day, an additional subcutaneous injection of air (1.5 mL) was performed to reinflate the air pouch. The mice were given either vehicle control (dimethylformamide/PEG400/saline) or test compound solubilized in vehicle via tail vein injection. After 30 minutes, either sterile phosphate buffered saline (PBS, 1 ml) or 2% carrageenan in sterile PBS (1 mL) was injected into the air pouch. After 4 hours, the mice were sedated with ketamine, and sacrificed by cervical dislocation. The exudate in the air pouch was collected by syringe, with an additional 2 mL wash with sterile PBS. The neutrophils were stained with trypan blue and counted on a hemocytometer under 20× magnification.

neutrophil influx [5] = assay: Murine air pouch model of neutrophil chemotaxis (p.o.); assay type: in vivo, male CD-1 mice
Experimental: as §1, with “Compounds 1 (SX-517) and 2 (SX-576) were also assayed in an in vivo air-pouch model of inflammation. SX-517 and SX-576 were able to attenuate neutrophil influx in the air-pouch model by about 50% at an oral dose of 0.2 and 0.05 mg/kg, respectively. […] More specifically, the procedure” for “The procedure”, “control (Labrasol®)” for “control (dimethylformamide/PEG400/saline)”, “in Labrasol®” for “in vehicle”, “via oral gavage.” for “via tail vein injection.”, “After 3 hours,” for “After 30 minutes,”

Aqueous solubility = assay type: physicochemical
CXCR2 [6] = target: T1, CXCR2; assay: Wash-resistant inhibition of GROα-mediated calcium response after inhibitor washout; assay type: cell-based; conditions: 0.4, 2, 10 μM, 30 min incubation, washed, up to 6 h after washout
Target sequence in this assay (P25025 whole entry, the tested form may be a part): as the sequence (P25025 whole entry, species assumed, the tested form may be a part) above

activity on β-arrestin complexation with CXCR2 in the absence of IL8 (CXCR2 [1]; absence of IL8): inverse agonists
Magnitude of Agonist Response (% of GROα only Control) (CXCR2 [2]): 100%
bioavailability following oral administration ([3]; 5 mg/kg oral in Gelucire 44/14): improved the bioavailability
plasma level when dosed without excipient ([3]; without excipient): undetected in plasma
aqueous solubility (Aqueous solubility): poor aqueous solubility
Structure (SMILES): O=C(Nc1ccc(F)cc1)c1ccc(SCc2cc(OC(F)(F)F)ccc2B(O)O)nc1 [Compound 2, 6-(2-boronic acid-5-trifluoromethoxy-benzylsulfanyl)-N-(4-fluoro-phenyl)-nicotinamide]
inhibition of β-arrestin recruitment following CXCR2 activation with IL8 (CXCR2 [1]; with IL8, listed as SX-576): inhibited arrestin recruitment; also recorded: more potent inhibitor than SX-517, comparable to the diarylurea SB225002
influx of macrophages into the lungs (pulmonary inflammation): significantly decreased
influx of neutrophils into the lungs (pulmonary inflammation): significantly decreased
ozone-induced lung damage (protein levels in the BALF) (pulmonary inflammation): protected against ozone-induced lung damage
neutrophil influx (neutrophil influx [4]): significantly attenuate neutrophil influx
total neutrophil counts in the blood (neutrophil influx [5]; high doses, compared to control animals): not significantly changed
attenuation of neutrophil influx (neutrophil influx [5]; oral dose 0.05 mg/kg): about 50%
neutrophil influx (neutrophil influx [5]; p.o., 0.05 mg/kg): decrease of neutrophil influx
neutrophil influx at high oral dose (neutrophil influx [5]; p.o., doses in excess of 1 mg/kg): increase in neutrophil influx
wash-resistant inhibition of GROα mediated intracellular calcium release (CXCR2 [6]): dose-dependent and wash-resistant inhibition
